Drawing on patent US5489591A, “S-triazine derivative and remedy for estrogen-dependent disease containing said derivative as effective component” (Zenyaku Kogyo Kabushiki Kaisha, priority 1992, dated 1996), this text covers IC50 and LD50 for four compounds.

Structures are written as SMILES.

The target in series [1] is T1, cholesterol side-chain cleaving enzyme (Sus scrofa, UniProt P10612).
T1 construct: porcine adrenal mitochondria; from tissue; host or cells: porcine adrenal mitochondria
T1 sequence (P10612 40-520): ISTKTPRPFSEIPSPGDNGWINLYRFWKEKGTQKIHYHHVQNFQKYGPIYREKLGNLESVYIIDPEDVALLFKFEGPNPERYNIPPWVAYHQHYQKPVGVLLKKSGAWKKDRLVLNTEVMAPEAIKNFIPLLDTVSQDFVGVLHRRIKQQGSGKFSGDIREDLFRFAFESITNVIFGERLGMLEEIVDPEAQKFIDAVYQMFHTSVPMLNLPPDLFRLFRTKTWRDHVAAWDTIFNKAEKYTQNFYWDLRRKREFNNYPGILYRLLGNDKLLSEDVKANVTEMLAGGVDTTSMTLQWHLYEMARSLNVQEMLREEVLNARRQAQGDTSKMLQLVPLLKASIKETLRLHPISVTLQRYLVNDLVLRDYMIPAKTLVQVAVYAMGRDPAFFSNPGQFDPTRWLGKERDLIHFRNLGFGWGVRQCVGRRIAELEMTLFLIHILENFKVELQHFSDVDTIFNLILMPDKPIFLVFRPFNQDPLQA
Put plainly: Inhibitory activity against cholesterol side-chain cleaving enzyme (Pharmacological Test 2, porcine adrenal mitochondria). Format: biochemical. As to conditions: substrate 5-cholesten-3β-ol 5.0×10^-6 M, read-out: SCC-IC50. On the procedure:
Inhibitory activity against cholesterol side-chain cleaving enzyme was determined according to the method of M. Shikita and P. F. Hall [Proc. Nat. […] Briefly, the each compound to be tested was added to a reaction vial containing porcine adrenal mitochondria, [4-^14 C]5-cholesten-3β-ol (250 Bq/5 nmol) and NADPH. […] These were separated by extracting the reaction mixture with methylene-dichloride followed by purifying with thin-layer chromatography. Substrate (5-cholesten-3β-ol) and reaction product (3β-hydroxypregn-5-en-20-one) were respectively measured by a liquid scintillation counter. The measured quantity of 3β-hydroxypregn-5-en-20-one was used to determine cholesterol side-chain cleaving activity which was compared with the activity when incubated without inhibitor to calculate inhibition ratio (%).

Series [2] can be described thus: Acute toxicity in ICR female mice, oral (Pharmacological Test 4). To be noted: mouse, in vivo, suspended in distilled water with 1% hydroxypropylcellulose, observation for fourteen days. The text has this:
The acute toxicity of the compounds of the present invention was examined by the following method.

For the next series, the target named is T2, Aromatase (Homo sapiens, UniProt P11511).
T2 construct: human placenta microsome; from tissue; host or cells: human placenta microsomes
T2 sequence (P11511 1-503): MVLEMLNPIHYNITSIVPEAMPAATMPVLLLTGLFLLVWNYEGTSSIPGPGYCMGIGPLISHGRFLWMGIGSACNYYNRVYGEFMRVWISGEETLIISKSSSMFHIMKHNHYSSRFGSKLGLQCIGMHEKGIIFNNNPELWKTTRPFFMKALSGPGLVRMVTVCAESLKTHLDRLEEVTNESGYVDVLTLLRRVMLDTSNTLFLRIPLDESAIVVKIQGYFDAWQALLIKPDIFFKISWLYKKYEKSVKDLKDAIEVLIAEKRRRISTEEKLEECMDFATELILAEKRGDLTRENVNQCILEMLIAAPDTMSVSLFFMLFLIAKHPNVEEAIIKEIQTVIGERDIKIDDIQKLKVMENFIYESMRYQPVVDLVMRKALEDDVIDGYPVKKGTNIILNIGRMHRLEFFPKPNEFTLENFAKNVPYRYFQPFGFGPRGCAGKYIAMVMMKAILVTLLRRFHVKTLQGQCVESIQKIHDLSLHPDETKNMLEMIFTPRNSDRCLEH
Nature of the series: Aromatase inhibitory activity (Pharmacological Test 1, human placenta microsome). Format: biochemical. To be noted: substrate 4-androsten-3,17-dione 1.0×10^-6 M, read-out: AI-IC50. Here is the method:
Aromatase inhibitory activity was determined according to the method of E. A. Thompson and P. K. Siiteri [J. Biol. Chem., 249, 5364-5372 (1974)]. The each compound to be tested was added to a reaction vial containing human placenta microsome, [1β,2 β-^3 H]4-androsten-3,17-dione (3.3 kBq/500 pmol) and NADPH. […] The obtained [^3 H]H2 O was measured by a liquid scintillation counter. The measured quantity of [3H]H20 was used to determine aromatase activity, and was compared with the activity when incubated without inhibitor to calculate inhibition ratio (%).

In general, IC50 refers to the point on the concentration scale where inhibition reaches its midpoint. As a reminder, the LD50 is the dose at which mortality reaches 50%. A low value points to a more toxic substance. Turning to `c1cn(-c2nc(N3CCOCC3)nc(N3CCOCC3)n2)cn1` [Compound 16, 2-(1-Imidazolyl)-4,6-dimorpholino-1,3,5-triazine], the results for the IC50 (in series [1]; at Aromatase) were more than 100000 nM and 5.3 nM, respectively. Besides, the median lethal dose (LD50) at 336 h in series [2] was 200 to 300 mg/kg.

Turning to `c1cn(-c2nc(N3CCOCC3)nc(N3CCSCC3)n2)cn1` [Compound 37, 2-(1-Imidazolyl)-4-morpholino-6-thiomorpholino-1,3,5-triazine], the concentration for half-maximal inhibition (IC50) in series [1] was more than 100000 nM; on Aromatase, 11 nM. The compound further registered an LD50 at 336 h in series [2] of more than 400 mg/kg.

With `c1ccc(C2CCN(c3nc(N4CCOCC4)nc(-n4ccnc4)n3)CC2)cc1` [Compound 38, 2-(1-Imidazolyl)-4-morpholino-6-(4-phenylpiperidino)-1,3,5-triazine], the IC50 in series [1] came to 23000 nM; at Aromatase, 38 nM. Also, in series [2], the LD50 at 336 h was more than 400 mg/kg.

Consider `CN(c1ccc(Cl)cc1)c1nc(N2CCOCC2)nc(-n2ccnc2)n1` [Compound 55, 2-[N-(4-Chlorophenyl)-N-methylamino]-4-(1-imidazolyl)-6-morpholino-1,3,5-triazine], for which the figures for the half-inhibitory concentration (IC50) (in series [1]; on Aromatase) were 26000 nM and 7.7 nM, respectively. In series [2], this compound showed an LD50 at 336 h of more than 400 mg/kg.
